# Assays:
# Aβ oligomers = conditions: read-out: Kd, oligomer-selective probe; cited from earlier work
# Aβ42 fibrils = biological target: T1, Aβ42 fibrils (Homo sapiens, UniProt P05067); assay: Fluorescence saturation binding assay with Aβ42 fibrils; conditions: Aβ42 fibrils
# T1 construct: 1 mg of commercial Aβ42 monomer powder (from GL biochem) was dissolved in 1; purchased GL biochem
# Method: (§1) Fig. 3 Binding constant measurements of ZY-5-OMe (left), ZY-5-MT (middle), ZY-5-DT (right) with Aβ42 fibrils (top), and oligomers (bottom). The measurements were performed in 10 mM phosphate buffered saline (PBS), pH 7.4. The Kd curves were fitted in GraphPad Prism with one site-specific binding model. Equation: Y = Bmax × X/(Kd + X). [Aβ42 fibrils] = [Aβ42 oligomers] = 5 μM.
# (§2) Preparation of the Aβ42 Fibrils and Aβ42 Oligomers
# (§3) Aβ42 fibrils: 1 mg of commercial Aβ42 monomer powder (from GL biochem) was dissolved in 1
# (§4) mL 1,1,1,3,3,3-hexafluoro-2-propanol (HFIP) at room temperature and incubated for 1h. The
# (§5) resulting solution was divided equally into two Eppendorf tubes. The solution in each Eppendorf
# (§6) tube containing 0.5 mg Aβ42 monomer was then evaporated overnight and dried by vacuum
# (§7) centrifuge to generate monomeric films. 100 μM Aβ42 fibrils solution was prepared by dissolving
# (§8) the 0.5 mg monomeric films in 1.1 mL PBS buffer (with final DMSO concentration less than 1%)
# (§9) and stiring at 37 °C for 3 days.
# (§10) Aβ42 oligomers: The 0.5 mg monomeric films were dissolved in 1.1 mL PBS buffer (with final
# (§11) DMSO concentration less than 1%) and incubated at 4 °C overnight. The resulting solution was
# (§12) then centrifuged at 3000 rpm for 15 mins to remove the insoluble aggregates. The clear supernatant
# (§13) was then used for the following experiments. […]
# (§14) In Vitro Saturation Binding Studies with Aβ42 Fibrils and Aβ42 Oligomers
# (§15) To a solution of increasing concentrations of compounds, a fixed concentration of the generated
# (§16) aggregated Aβ42 fibrils or Aβ42 oligomers solutions (5 to 15 μM) was added to yield a total volume
# (§17) of 100 μL. Nonspecific binding was determined without compounds. The mixture was incubated
# (§18) for 15 min at room temperature. All fluorescence data were obtained on a SpectraMax M2e plate
# (§19) reader (Molecular Devices).
# Aβ42 oligomers = biological target: T2, Aβ42 oligomers (Homo sapiens, UniProt P05067); assay: Fluorescence saturation binding assay with Aβ42 oligomers
# T2 construct: 1 mg of commercial Aβ42 monomer powder (from GL biochem) was dissolved in 1; purchased GL biochem
# Method: as §1, §2, §3, §4, §5, §6, §7, §8, §9, §10, §11, §12, §13, §14, §15, §16, §17, §18, §19
# [1] = biological target: T3, Aβ plaques in 5xFAD mice brain sections (Homo sapiens, UniProt P05067); assay: Fluorescence imaging of 5xFAD mouse brain sections, colocalization with Congo Red; conditions: 9-month-old 5xFAD brain sections; compound 5 μM, Congo red 2.5 μM
# T3 construct: aggregated Aβ species were commonly observed in brain sections from 5xFAD transgenic mice; tissue Jackson Laboratories; host or cells: brain sections of 9-month-old 5xFAD transgenic mice
# Method: (§20) In order to confirm that the compounds can also bind to native Aβ species, brain sections collected from 9-month-old 5xFAD transgenic mice have been employed in the fluorescence imaging studies. […] The brain sections were first incubated with our compounds, followed by Congo Red (CR), which is a well-established fluorescent probe that can bind to Aβ plaques.[34] The treated brain sections were then imaged using fluorescence microscope. […] Immunostaining with the CF594-conjugated HJ 3.4 antibody (CF594-HJ3.4) was also performed to confirm that these six compounds can bind to Aβ species specifically in the brain sections (Fig. 5). Moreover, the log D values of the compounds were also measured by octanol-PBS partition assays.[35]
# Fig. 4 Fluorescence microscopy images of 5xFAD mice brain sections co-incubated with amphiphilic compounds (top), Congo red (middle) and merged images (bottom, along with the Parson's correlation coefficients R). Concentrations: [amphiphilic compounds] = 5 μM, [Congo red] = 2.5 μM; scale bar: 125 μm. TEXT PRINTED IN THE PICTURE: ZY-5-MT: Merged R= 0.84 | ZY-12-DT: Merged R= 0.52 | ZY-12-OMe: Merged R= 0.77 | ZY-15-OMe: Merged R= 0.77 | ZY-17-DT: Merged R= 0.77 | ZY-17-OMe: Merged R= 0.72 […]
# Histological Staining of 5×FAD Mice Brain Sections
# 5xFAD transgenic mice brain sections were blocked with bovine serum albumin (2% BSA in PBS, pH 7.4, 10 min). Then the mice brain sections were transferred to a PBS solution of the compound and incubated for 1 h. After which, the brain sections were transferred to a PBS solution of Congo Red or antibody HJ 3.4 (Professor David Holtzman, 1 μg/ml) and incubated for another 1 h. Then, the brain sections were treated with BSA again (5 min) followed by washing with PBS (3 × 2 min), DI water (3 × 2 min). Finally, the mice brain sections were mounted with non-fluorescent mounting media, and the images were obtained by using EVOS FL Auto 2. ImageJ Fiji program was used for colocalization analysis and determination of the Pearson’s correlation coefficient. The primary
# [2] = Log D by octanol-PBS partition assay; format: physicochemical; conditions: pH 7.4, fluorescence readout
# Method: as §20, with “assays.[35] […]” for “assays.[35]”
# The Log D value was measured following a published procedure using slight modifications.4 In general, compounds in 0.5 mL octanol was subjected to partition with 0.5 mL octanol-saturated
# PBS. The whole mixture was stirred vigorously for 5 min, and centrifuged at 2,000 rpm for 5 min.
# The top octanol layer was separated for later fluorescence measurement. The remaining PBS layer was partitioned with 0.5 mL PBS-saturated octanol, and the second top octanol layer was then separated after vigorous stirring and centrifuging at 2,000 rpm for another 5 min. The two octanol layers’ fluorescence spectra were recorded. The log D value was calculated by the fluorescence intensity ratio at the compounds’ emission wavelength for the above two octanol extractions. […]
# [3] = Alamar Blue cytotoxicity assay in N2a cells; format: cell-based, mouse; conditions: mouse, N2a (Neuro2A) neuroblastoma cells, 40 h, read-out: cell viability
# Method: (§21) After confirming these amphiphilic compounds can bind to Aβ species both in vitro and ex vivo, we next investigated whether these compounds could attenuate the toxicity of the Cu–Aβ species, as the Cu^2+ ions were reported to promote the formation of neurotoxic soluble Aβ42 oligomers.[45,46] Firstly, the Alamar Blue cell viability assay was used to measure the cytotoxicity of the compounds at different concentrations ranging from 20 μM to 2 μM in mouse neuroblastoma N2a cells (Fig. 8). […] Considering its high binding affinity to both Aβ fibrils and oligomers, we also further tested its ability to alleviate Cu^2+–Aβ42-induced toxicity. […] The underlying mechanism is unclear, but we propose that these compounds might perform similarly to the toxic oligomers that bind to some cell membrane receptors or insert into the membrane lipids to form porous channels.
# (§22) Alamar Blue assay was chosen for the cytotoxicity studies.3 Mouse neuroblastoma Neuro2A (N2A) cells were grown with DMEM/10% FBS in a petri dish at 37 °C in a humidified atmosphere with 5% CO2. Then N2A cells were seeded in a 96-well plate (1.0 × 10^4/well). After 24 h incubation, cell media was changed to DMEM/N-2, and N2A cells were incubated for another 1 h. Then the cells were treated with different concentrations of compounds for 40 h, Alamar Blue solution (10 μL) was added, and the cells were incubated for another 90 min at 37 °C. The fluorescence intensity of each well was measured at 590 nm (excitation wavelength = 560 nm).
# (§23) For the Cu2+-Aβ-induced toxicity studies, cells were treated monomeric Aβ42, Cu2+, monomeric Aβ42 + Cu2+, and monomeric Aβ42 + Cu2+ + compounds, monomeric Aβ42 + Cu2+ + copper chelators (Me2HTACN or Me3TACN), respectively. After 40 h incubation, Alamar Blue solution (10 μL) was added, and the cells were incubated for another 90 min at 37 °C. The fluorescence intensity of each well was measured at 590 nm (excitation wavelength = 560 nm). […]
# [4] = system: mouse neuroblastoma N2a cells; assay: Alamar Blue cytotoxicity assay in N2a cells; format: cell-based; conditions: 2 to 20 μM
# Method: as §21, §22, §23
# T2 sequence (P05067 672-713 limits assumed): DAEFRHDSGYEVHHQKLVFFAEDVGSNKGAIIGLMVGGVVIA
# T1 sequence (P05067 672-713 limits assumed): as above
# T3 sequence (P05067 672-713 limits assumed): as above
smiles,measurement,setting,value
CCOc1cccc(C=Cc2cc(C)c3n2[B-](F)(F)[N+]2=C(CCC(=O)OCC(Cl)(Cl)Cl)C=CC2=C3)c1O [BD-Oligo],Kd,Aβ oligomers,0.48 µM
CCN(CC)c1ccc(/C=C/C2=[O+][B-](F)(F)OC(/C=C/c3ccc(N(CC)CC)nc3)=C2CCCOc2c(C)cccc2C)cn1 [CRANAD-102],Kd,Aβ oligomers,0.0075 ± 0.01 µM
COCCOCCn1c2ccc(F)cc2c2cc(/C=C/c3cc[n+](CCO)c4ccccc34)ccc21 [F-SLOH],Kd,Aβ oligomers,0.66 µM
COc1cc(-c2ccc(/C=C/c3ccc(N(C)C)cc3)s2)cc(CN2CCN(C)CCN(C)CC2)c1O [ZY-12-OMe],Kd,"Aβ42 fibrils; 10 mM PBS pH 7.4, one site-specific binding model, read-out: Kd, Fibrils",0.39 µM
same,"binding ratio, Fibrils",Aβ42 fibrils; from cross point between plateau and initial slope,8.5
same,Kd,"Aβ42 oligomers; Aβ42 oligomers, 10 mM PBS pH 7.4, one site-specific binding model",0.32 µM
same,"binding ratio, Oligomers","Aβ42 oligomers; Aβ42 oligomers, from cross point between plateau and initial slope",10.2
same,binding preference oligomers vs fibrils (from Kd values),Aβ42 oligomers; lower Kd for Aβ oligomers than Aβ fibrils,higher binding affinity to oligomers over fibrils
same,"Pearson's correlation coefficient R, colocalization with Congo Red",[1],0.77
same,logD,[2],1.17 ± 0.026
same,"viability at 40 h, 5 µM",[3]; at 5 μM,> 75%
same,"viability at 40 h, 10 µM",[3]; at 10 μM,< 50%
same,cytotoxicity (in words),[4],higher cytotoxicity than others

# Source: paper PMC9645390, “Amphiphilic stilbene derivatives attenuate the neurotoxicity of soluble Aβ42 oligomers by controlling their interactions with cell membranes” (Chemical Science, 2022)
